Laboratory results published in patent publication US20240083857A1, “2-Methyl-Quinazolines” (Bayer Pharma Aktiengesellschaft, priority 2017, published 2024).

What was measured:
[1] = molecular target: K-Ras^G12C : hSOS1 interaction (Homo sapiens, UniProt Q07889); assay: Biochemical assay 1: K-Ras^G12C interaction assay with hSOS1 (HTRF); assay type: binding; settings: for IC50: read-out: Assay 1 (KRAS-SOS Interaction) activity expressed as IC50
[2] = molecular target: human SOS1 (nucleotide exchange of K-Ras^G12C) (Homo sapiens, UniProt Q07889); assay: Biochemical assay 2: K-Ras^G12C activation assay by hSOS1 at high GTP concentration (HTRF); settings: high GTP; for IC50: read-out: Assay 2 (KRAS-Activation by SOS high GTP) activity expressed as IC50; for inhibition at 20 µM: read-out: Assay 2 (KRAS-Activation by SOS high GTP) activity expressed as % inhibition at 20 μM
[3] = molecular target: human SOS1 (loading of human K-Ras^G12C-GDP with fluorescent GTP-analog) (Homo sapiens, UniProt Q07889); assay: Biochemical assay 3: K-Ras^G12C activation assay by hSOS1 (HTRF); settings: no GTP; for IC50: read-out: Assay 3 (KRAS-Activation by SOS no GTP) activity expressed as IC50; for inhibition at 20 µM: read-out: Assay 3 (KRAS-Activation by SOS no GTP) activity expressed as % inhibition at 20 μM

SMILES	IC50 [1]	IC50 [2]	IC50 [3]	inhibition at 20 µM [3]	inhibition at 20 µM [2]	inhibition at 20 µM ([1]; read-out: Assay 1 (KRAS-SOS Interaction) activity expressed as % inhibition at 20 μM)
COc1cc2nc(C)nc(N[C@H](C)c3cccc(-c4cccc(S(N)(=O)=O)c4)c3)c2cc1OC [Example 61, 3′-{(1R)-1-[(6,7-dimethoxy-2-methylquinazolin-4-yl)amino]ethyl}biphenyl-3-sulfonamide]	374 nM	717 nM	895 nM			
COc1cc2nc(C)nc(N[C@H](C)c3cccc(-c4cnc(N)nc4)c3)c2cc1OC [Example 62, N-{(1R)-1-[3-(2-aminopyrimidin-5-yl)phenyl]ethyl}-6,7-dimethoxy-2-methylquinazolin-4-amine]	1260 nM	2770 nM	2630 nM			
COc1cc2nc(C)nc(N[C@H](C)c3cccc(/C=C/C4CC4)c3)c2cc1OC [Example 63, N-[(1R)-1-{3-[(E)-2-cyclopropylethenyl]phenyl}ethyl]-6,7-dimethoxy-2-methylquinazolin-4-amine]	1130 nM	1800 nM	1880 nM			
CCOCc1ccccc1-c1cccc([C@@H](C)Nc2nc(C)nc3cc(OC)c(OC)cc23)c1 [Example 64, N-{(1R)-1-[2′-(ethoxymethyl)biphenyl-3-yl]ethyl}-6,7-dimethoxy-2-methylquinazolin-4-amine]	1400 nM	1960 nM	2210 nM			
COc1cc(F)cc(-c2cccc([C@@H](C)Nc3nc(C)nc4cc(OC)c(OC)cc34)c2)c1 [Example 65, N-[(1R)-1-(3′-fluoro-5′-methoxybiphenyl-3-yl)ethyl]-6,7-dimethoxy-2-methylquinazolin-4-amine]	5760 nM	8340 nM	13500 nM			
COc1ccc2oc(-c3cccc([C@@H](C)Nc4nc(C)nc5cc(OC)c(OC)cc45)c3)cc2c1 [Example 66, 6,7-dimethoxy-N-{(1R)-1-[3-(5-methoxy-1-benzofuran-2-yl)phenyl]ethyl}-2-methylquinazolin-4-amine]	3460 nM	4550 nM	6600 nM			
CCCCOc1cccc(F)c1-c1cccc([C@@H](C)Nc2nc(C)nc3cc(OC)c(OC)cc23)c1 [Example 67, N-[(1R)-1-(2′-butoxy-6′-fluorobiphenyl-3-yl)ethyl]-6,7-dimethoxy-2-methylquinazolin-4-amine]	9980 nM	19600 nM		54%		
COc1cc2nc(C)nc(N[C@H](C)c3cccc(-c4ccc(C(C)(C)C#N)cc4)c3)c2cc1OC [Example 69, 2-(3′-{(1R)-1-[(6,7-dimethoxy-2-methylquinazolin-4-yl)amino]ethyl}biphenyl-4-yl)-2-methylpropanenitrile]	3920 nM	5410 nM	9070 nM			
COc1cc2nc(C)nc(N[C@H](C)c3cccc(-c4cccc(CNS(C)(=O)=O)c4)c3)c2cc1OC [Example 71, N-[(3′-{(1R)-1-[(6,7-dimethoxy-2-methylquinazolin-4-yl)amino]ethyl}biphenyl-3-yl)methyl]methanesulfonamide]	393 nM	643 nM	680 nM			
COc1cc2nc(C)nc(N[C@H](C)c3cccc(-c4ccc(CNS(C)(=O)=O)cc4)c3)c2cc1OC [Example 72, N-[(3′-{(1R)-1-[(6,7-dimethoxy-2-methylquinazolin-4-yl)amino]ethyl}biphenyl-4-yl)methyl]methanesulfonamide]	737 nM	666 nM	882 nM			
CCCNC(=O)c1ccc(-c2cccc([C@@H](C)Nc3nc(C)nc4cc(OC)c(OC)cc34)c2)cc1 [Example 73, 3′-{(1R)-1-[(6,7-dimethoxy-2-methylquinazolin-4-yl)amino]ethyl}-N-propylbiphenyl-4-carboxamide]	427 nM	554 nM	495 nM			
COc1cc2nc(C)nc(N[C@H](C)c3cccc(-c4ccc(C(=O)NCCN(C)C)cc4)c3)c2cc1OC [Example 74, 3′-{(1R)-1-[(6,7-dimethoxy-2-methylquinazolin-4-yl)amino]ethyl}-N-[2-(dimethylamino)ethyl]biphenyl-4-carboxamide]	149 nM	223 nM	261 nM			
COc1cc2nc(C)nc(N[C@H](C)c3cccc(-c4ccn[nH]4)c3)c2cc1OC [Example 75, 6,7-dimethoxy-2-methyl-N-{(1R)-1-[3-(1H-pyrazol-3-yl)phenyl]ethyl}quinazolin-4-amine]	588 nM	1150 nM	1010 nM			
C/C=C(\C)c1cccc([C@@H](C)Nc2nc(C)nc3cc(OC)c(OC)cc23)c1 [Example 76, N-[(1R)-1-{3-[(2E)-but-2-en-2-yl]phenyl}ethyl]-6,7-dimethoxy-2-methylquinazolin-4-amine]	471 nM	1190 nM	952 nM			
CCCOc1ccc(Cl)cc1-c1cccc([C@@H](C)Nc2nc(C)nc3cc(OC)c(OC)cc23)c1 [Example 77, N-[(1R)-1-(5′-chloro-2′-propoxybiphenyl-3-yl)ethyl]-6,7-dimethoxy-2-methylquinazolin-4-amine]	7860 nM	9630 nM	19900 nM			
COc1cc2nc(C)nc(N[C@H](C)c3cccc(/C=C/Cc4ccccc4)c3)c2cc1OC [Example 78, 6,7-dimethoxy-2-methyl-N-[(1R)-1-{3-[(1E)-3-phenylprop-1-en-1-yl]phenyl}ethyl]quinazolin-4-amine]	8550 nM			31%	45%	
COc1cc2nc(C)nc(N[C@H](C)c3cccc(-c4ccc(N5CCOCC5)cc4)c3)c2cc1OC [Example 79, 6,7-dimethoxy-2-methyl-N-{(1R)-1-[4′-(morpholin-4-yl)biphenyl-3-yl]ethyl}quinazolin-4-amine]	1550 nM	937 nM	1650 nM			
COc1cc2nc(C)nc(N[C@H](C)c3cccc(-c4cccc(N5CCOCC5)c4)c3)c2cc1OC [Example 80, 6,7-dimethoxy-2-methyl-N-{(1R)-1-[3′-(morpholin-4-yl)biphenyl-3-yl]ethyl}quinazolin-4-amine]	721 nM	711 nM	1120 nM			
COc1cc2nc(C)nc(N[C@H](C)c3cccc(-c4ccccc4OCc4ccccc4)c3)c2cc1OC [Example 81, N-{(1R)-1-[2′-(benzyloxy)biphenyl-3-yl]ethyl}-6,7-dimethoxy-2-methylquinazolin-4-amine]				24%	33%	42%
COc1cc2nc(C)nc(N[C@H](C)c3cccc(-c4ccc(S(C)(=O)=O)cc4)c3)c2cc1OC [Example 82, 6,7-dimethoxy-2-methyl-N-{(1R)-1-[4′-(methylsulfonyl)biphenyl-3-yl]ethyl}quinazolin-4-amine]	598 nM	857 nM	1000 nM			
COc1cc2nc(C)nc(N[C@H](C)c3cccc(-c4ccccc4OC(F)(F)F)c3)c2cc1OC [Example 83, 6,7-dimethoxy-2-methyl-N-{(1R)-1-[2′-(trifluoromethoxy)biphenyl-3-yl]ethyl}quinazolin-4-amine]	8500 nM	7850 nM	17400 nM			
COc1cc2nc(C)nc(N[C@H](C)c3cccc(-c4cccc(OC(F)(F)F)c4)c3)c2cc1OC [Example 84, 6,7-dimethoxy-2-methyl-N-{(1R)-1-[3′-(trifluoromethoxy)biphenyl-3-yl]ethyl}quinazolin-4-amine]	5330 nM	7200 nM	11000 nM			
